From patent US5929236A, “2-substituted morpholine and thiomorpholine derivatives as GABA-B antagonists” (Schering Corporation, priority 1995, dated 1999)

Legend:
[1] = system: Respiratory Depressant Effect of Baclofen; assay: Inhibition of Respiratory Depressant Effect of Baclofen; type: in vivo, guinea pig; conditions: for % Inhibition: mean ± SEM; for ED50: Cavia porcellus
Method: (§1) Animal Model for Respiratory Depression:
Place unanesthetized guinea pigs in a head-out plethysmograph and expose to a CO2 enriched gas mixture (10% CO2, 21% O2, 69% N2) for 10 min., (see Danko, et al., J. Pharm. Methods, 19, 165-173 (1988)). Plethysmograph pressure is detected with a transducer connected to a chart recorder. Minute ventilation is calculated as the product of tidal volume and respiratory frequency. The compound to be tested is administered orally, subcutaneously (sc), intraperitoneally (ip) or via an intracerebroventricular route (icv). Baclofen (3 mg/kg, sc) was given 30 min before exposure to the CO2 enriched gas. […] A 40 or 30 min. preteratment is used for the subcutaneous and intraperitoneal routes, respectively. The vehicle for oral, sc or ip administration is saline. For icv administration, single icv cannulae are placed in the lateral ventricle of anesthetized guinea pigs, (see McLeod, et al., Eur. J. Pharmacol., 209, 141-142 (1988)). The animals are allowed to recover approximately one week prior to use for ventilation experiments. The vehicle for icv administration is artificial cerebrospinal fluid (CSF).

[2] = system: Respiratory Depressant Effect of Baclofen; assay: Reversal of the Respiratory Depressant Effect of Baclofen via icv Administration; type: in vivo, guinea pig; conditions: 50 μg in 10 μl of vehicle, icv, 5 min before measurement of ventilation; mean ± SEM
Method: as §1
Place unanesthetized guinea pigs in a head-out plethysmograph and expose to a CO2 enriched gas mixture (10% CO2, 21% O2, 69% N2) for 10 min., (see Danko, et al., J. Pharm. Methods, 19, 165-173 (1988)). Plethysmograph pressure is detected with a transducer connected to a chart recorder. Minute ventilation is calculated as the product of tidal volume and respiratory frequency. The compound to be tested is administered orally, subcutaneously (sc), intraperitoneally (ip) or via an intracerebroventricular route (icv). Baclofen (3 mg/kg, sc) was given 30 min before exposure to the CO2 enriched gas. When given by the oral route, the compounds is administered 1, 3, 5 or 7 h before exposure to CO2 enriched gas. A 40 or 30 min. preteratment is used for the subcutaneous and intraperitoneal routes, respectively. The vehicle for oral, sc or ip administration is saline. For icv administration, single icv cannulae are placed in the lateral ventricle of anesthetized guinea pigs, (see McLeod, et al., Eur. J. Pharmacol., 209, 141-142 (1988)). The animals are allowed to recover approximately one week prior to use for ventilation experiments. The vehicle for icv administration is artificial cerebrospinal fluid (CSF).

CC1(C)COC(CC(=O)O)CN1 (single isomer, unassigned) [Example 6A]
% Inhibition ([1]; 0.3 mg/kg ip): 39 ± 10%
% Inhibition ([1]; 0.3 mg/kg sc): 27 ± 6%
% Inhibition ([1]; 1.0 mg/kg ip): 32 ± 7%
% Inhibition ([1]; 1.0 mg/kg oral, 60 min prior to baclofen): 36 ± 13%
% Inhibition ([1]; 1.0 mg/kg sc): 66 ± 7%
% Inhibition ([1]; 3.0 mg/kg ip): 59 ± 7%
% Inhibition ([1]; 3.0 mg/kg oral, 60 min prior to baclofen): 51 ± 13%
% Inhibition ([1]; 3.0 mg/kg sc): 97 ± 25%
% Inhibition ([1]; 10 mg/kg ip): 100 ± 9%
% Inhibition ([1]; 10 mg/kg oral, 60 min prior to baclofen): 68 ± 13%
% Inhibition ([1]; 10 mg/kg sc): 99 ± 11%
% Inhibition ([1]; 30 mg/kg oral, 60 min prior to baclofen): 78 ± 29%
ED50 ([1]; ip): 1.9 mg/kg
ED50 ([1]; sc): 0.63 mg/kg
ED50 ([1]; oral, 60 min prior to baclofen): 3 mg/kg
% Inhibition [2]: 99 ± 23%
